# Experimental data taken from paper PMC6886798, “Expression of myeloid Src-family kinases is associated with poor prognosis in AML and influences Flt3-ITD kinase inhibitor acquired resistance” (PLoS ONE, 2019).
# Columns and labels:
# Test in all cases: KINOMEscan
# Assay type in all cases: binding
# Conditions in all cases: 1.0 µM
# [1] = target: T1, ABL1(F317I)-phosphorylated (Homo sapiens, UniProt P00519, F317I)
# T1 construct: purchased Eurofins/DiscoverX KINOMEscan scanMAX
# Protocol: (§1) Kinase retention to the immobilized ligand is then measured using quantitative real-time PCR for each kinase-specific DNA barcode.
# ADCK3 = target: T2, ADCK3 (Homo sapiens, UniProt Q8NI60)
# T2 construct: purchased Eurofins/DiscoverX KINOMEscan scanMAX
# Protocol: as §1
# ASK1 = target: T3, ASK1 (Homo sapiens, UniProt Q99683)
# T3 construct: purchased Eurofins/DiscoverX KINOMEscan scanMAX
# Protocol: as §1
# BIKE = target: T4, BIKE (Homo sapiens, UniProt Q9NSY1)
# T4 construct: purchased Eurofins/DiscoverX KINOMEscan scanMAX
# Protocol: as §1
# CAMK1 = target: T5, CAMK1 (Homo sapiens, UniProt Q14012)
# T5 construct: purchased Eurofins/DiscoverX KINOMEscan scanMAX
# Protocol: as §1
# CAMK2A = target: T6, CAMK2A (Homo sapiens, UniProt Q9UQM7)
# T6 construct: purchased Eurofins/DiscoverX KINOMEscan scanMAX
# Protocol: as §1
# CDC2L1 = target: T7, CDC2L1 (Homo sapiens, UniProt P21127)
# T7 construct: purchased Eurofins/DiscoverX KINOMEscan scanMAX
# Protocol: as §1
# CDK9 = target: T8, CDK9 (Homo sapiens, UniProt P50750)
# T8 construct: purchased Eurofins/DiscoverX KINOMEscan scanMAX
# Protocol: as §1
# CHEK1 = target: T9, CHEK1 (Homo sapiens, UniProt O14757)
# T9 construct: purchased Eurofins/DiscoverX KINOMEscan scanMAX
# Protocol: as §1
# CSF1R-autoinhibited = target: T10, CSF1R-autoinhibited (Homo sapiens, UniProt P07333)
# T10 construct: purchased Eurofins/DiscoverX KINOMEscan scanMAX
# Protocol: as §1
# DAPK2 = target: T11, DAPK2 (Homo sapiens, UniProt Q9UIK4)
# T11 construct: purchased Eurofins/DiscoverX KINOMEscan scanMAX
# T11 sequence (Q9UIK4 whole entry): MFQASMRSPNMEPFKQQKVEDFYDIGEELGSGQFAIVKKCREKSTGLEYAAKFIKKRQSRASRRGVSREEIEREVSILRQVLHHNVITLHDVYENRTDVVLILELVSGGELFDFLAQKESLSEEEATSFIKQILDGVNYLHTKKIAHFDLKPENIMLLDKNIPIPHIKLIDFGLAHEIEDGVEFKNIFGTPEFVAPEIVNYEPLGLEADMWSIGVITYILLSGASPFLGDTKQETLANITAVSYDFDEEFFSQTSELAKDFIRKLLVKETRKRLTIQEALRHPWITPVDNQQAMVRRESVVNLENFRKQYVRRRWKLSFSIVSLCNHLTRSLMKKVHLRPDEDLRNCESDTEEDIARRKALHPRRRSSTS
# Protocol: as §1
# DDR1 = target: T12, DDR1 (Homo sapiens, UniProt Q08345)
# T12 construct: purchased Eurofins/DiscoverX KINOMEscan scanMAX
# Protocol: as §1
# EPHA4 = target: T13, EPHA4 (Homo sapiens, UniProt P54764)
# T13 construct: purchased Eurofins/DiscoverX KINOMEscan scanMAX
# Protocol: as §1
# EPHA8 = target: T14, EPHA8 (Homo sapiens, UniProt P29322)
# T14 construct: purchased Eurofins/DiscoverX KINOMEscan scanMAX
# Protocol: as §1
# EPHB2 = target: T15, EPHB2 (Homo sapiens, UniProt P29323)
# T15 construct: purchased Eurofins/DiscoverX KINOMEscan scanMAX
# Protocol: as §1
# FLT3(D835H) = target: T16, FLT3(D835H) (Homo sapiens, UniProt P36888, D835H)
# T16 construct: purchased Eurofins/DiscoverX KINOMEscan scanMAX
# Protocol: as §1
# FLT3(D835Y) = target: T17, FLT3(D835Y) (Homo sapiens, UniProt P36888, D835Y)
# T17 construct: purchased Eurofins/DiscoverX KINOMEscan scanMAX
# Protocol: as §1
# GRK3 = target: T18, GRK3 (Homo sapiens, UniProt P35626)
# T18 construct: purchased Eurofins/DiscoverX KINOMEscan scanMAX
# T18 sequence (P35626 whole entry): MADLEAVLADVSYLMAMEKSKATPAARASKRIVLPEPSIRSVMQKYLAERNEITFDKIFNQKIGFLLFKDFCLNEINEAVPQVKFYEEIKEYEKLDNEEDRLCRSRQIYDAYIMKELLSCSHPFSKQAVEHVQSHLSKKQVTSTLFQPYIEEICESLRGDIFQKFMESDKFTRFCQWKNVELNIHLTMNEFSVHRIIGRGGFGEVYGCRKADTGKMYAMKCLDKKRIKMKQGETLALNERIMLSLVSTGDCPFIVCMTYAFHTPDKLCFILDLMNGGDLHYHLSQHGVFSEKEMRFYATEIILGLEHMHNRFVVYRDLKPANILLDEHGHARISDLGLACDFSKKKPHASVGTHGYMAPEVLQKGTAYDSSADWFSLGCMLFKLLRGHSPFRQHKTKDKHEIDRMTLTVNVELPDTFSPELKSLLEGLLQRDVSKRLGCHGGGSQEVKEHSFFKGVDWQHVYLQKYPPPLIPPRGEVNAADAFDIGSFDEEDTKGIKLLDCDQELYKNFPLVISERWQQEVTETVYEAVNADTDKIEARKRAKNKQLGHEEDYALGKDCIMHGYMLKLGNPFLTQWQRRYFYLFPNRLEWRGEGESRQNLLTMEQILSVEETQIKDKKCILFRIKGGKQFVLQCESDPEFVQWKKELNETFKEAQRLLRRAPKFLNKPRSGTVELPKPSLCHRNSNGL
# Protocol: as §1
# [2] = target: T19, JAK3(JH1domain-catalytic) (Homo sapiens, UniProt P52333)
# T19 construct: JAK3(JH1domain-catalytic); purchased Eurofins/DiscoverX KINOMEscan scanMAX
# Protocol: as §1
# MAP3K4 = target: T20, MAP3K4 (Homo sapiens, UniProt Q9Y6R4)
# T20 construct: purchased Eurofins/DiscoverX KINOMEscan scanMAX
# T20 sequence (Q9Y6R4 whole entry): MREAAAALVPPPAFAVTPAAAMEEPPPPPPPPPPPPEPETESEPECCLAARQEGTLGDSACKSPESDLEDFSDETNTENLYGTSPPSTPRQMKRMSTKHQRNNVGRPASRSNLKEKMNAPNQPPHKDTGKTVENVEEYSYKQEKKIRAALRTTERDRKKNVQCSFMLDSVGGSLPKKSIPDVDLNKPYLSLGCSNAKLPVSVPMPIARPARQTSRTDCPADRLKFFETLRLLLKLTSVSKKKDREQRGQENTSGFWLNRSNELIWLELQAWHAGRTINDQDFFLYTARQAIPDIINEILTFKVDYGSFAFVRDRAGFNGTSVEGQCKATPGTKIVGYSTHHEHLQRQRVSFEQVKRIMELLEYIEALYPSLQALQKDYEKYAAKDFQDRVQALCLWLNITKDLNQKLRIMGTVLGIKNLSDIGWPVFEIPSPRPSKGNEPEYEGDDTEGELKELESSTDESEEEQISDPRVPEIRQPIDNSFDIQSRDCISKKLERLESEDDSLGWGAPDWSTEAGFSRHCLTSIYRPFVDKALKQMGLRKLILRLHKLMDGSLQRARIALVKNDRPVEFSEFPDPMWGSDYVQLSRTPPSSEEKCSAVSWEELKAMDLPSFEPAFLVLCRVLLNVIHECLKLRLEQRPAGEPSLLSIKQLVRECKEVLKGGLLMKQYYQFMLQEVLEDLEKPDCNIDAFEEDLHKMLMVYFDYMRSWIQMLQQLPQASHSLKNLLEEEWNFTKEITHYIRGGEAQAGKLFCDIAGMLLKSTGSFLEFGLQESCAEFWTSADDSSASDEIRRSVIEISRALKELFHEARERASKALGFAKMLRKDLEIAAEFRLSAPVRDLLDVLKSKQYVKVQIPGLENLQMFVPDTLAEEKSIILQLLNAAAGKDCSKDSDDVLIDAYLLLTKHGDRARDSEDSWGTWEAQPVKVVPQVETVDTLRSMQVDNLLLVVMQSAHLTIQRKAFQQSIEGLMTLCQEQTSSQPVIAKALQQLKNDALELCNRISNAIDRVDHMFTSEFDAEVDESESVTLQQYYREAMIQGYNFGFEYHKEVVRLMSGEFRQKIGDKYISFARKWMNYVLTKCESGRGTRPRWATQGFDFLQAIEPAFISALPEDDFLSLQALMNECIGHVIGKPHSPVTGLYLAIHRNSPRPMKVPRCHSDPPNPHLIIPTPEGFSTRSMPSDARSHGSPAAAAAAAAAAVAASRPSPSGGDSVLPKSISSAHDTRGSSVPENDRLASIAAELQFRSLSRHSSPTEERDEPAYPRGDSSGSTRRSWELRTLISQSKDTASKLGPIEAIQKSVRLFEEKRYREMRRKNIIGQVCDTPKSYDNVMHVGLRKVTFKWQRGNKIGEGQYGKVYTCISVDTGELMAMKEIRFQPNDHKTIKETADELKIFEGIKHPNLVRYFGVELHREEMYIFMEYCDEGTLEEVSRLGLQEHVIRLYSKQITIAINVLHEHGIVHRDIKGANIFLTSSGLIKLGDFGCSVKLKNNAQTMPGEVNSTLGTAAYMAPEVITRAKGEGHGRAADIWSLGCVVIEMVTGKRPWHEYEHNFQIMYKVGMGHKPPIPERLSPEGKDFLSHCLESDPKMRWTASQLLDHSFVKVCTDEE
# Protocol: as §1
# MARK1 = target: T21, MARK1 (Homo sapiens, UniProt Q9P0L2)
# T21 construct: purchased Eurofins/DiscoverX KINOMEscan scanMAX
# Protocol: as §1
# MAST1 = target: T22, MAST1 (Homo sapiens, UniProt Q9Y2H9)
# T22 construct: purchased Eurofins/DiscoverX KINOMEscan scanMAX
# Protocol: as §1
# MEK4 = target: T23, MEK4 (Homo sapiens, UniProt P45985)
# T23 construct: purchased Eurofins/DiscoverX KINOMEscan scanMAX
# Protocol: as §1
# MEK5 = target: T24, MEK5 (Homo sapiens, UniProt Q13163)
# T24 construct: purchased Eurofins/DiscoverX KINOMEscan scanMAX
# Protocol: as §1
# MELK = target: T25, MELK (Homo sapiens, UniProt Q14680)
# T25 construct: purchased Eurofins/DiscoverX KINOMEscan scanMAX
# Protocol: as §1
# MERTK = target: T26, MERTK (Homo sapiens, UniProt Q12866)
# T26 construct: purchased Eurofins/DiscoverX KINOMEscan scanMAX
# Protocol: as §1
# MST1 = target: T27, MST1 (Homo sapiens, UniProt Q13043)
# T27 construct: purchased Eurofins/DiscoverX KINOMEscan scanMAX
# Protocol: as §1
# MUSK = target: T28, MUSK (Homo sapiens, UniProt O15146)
# T28 construct: purchased Eurofins/DiscoverX KINOMEscan scanMAX
# T28 sequence (O15146 24-869): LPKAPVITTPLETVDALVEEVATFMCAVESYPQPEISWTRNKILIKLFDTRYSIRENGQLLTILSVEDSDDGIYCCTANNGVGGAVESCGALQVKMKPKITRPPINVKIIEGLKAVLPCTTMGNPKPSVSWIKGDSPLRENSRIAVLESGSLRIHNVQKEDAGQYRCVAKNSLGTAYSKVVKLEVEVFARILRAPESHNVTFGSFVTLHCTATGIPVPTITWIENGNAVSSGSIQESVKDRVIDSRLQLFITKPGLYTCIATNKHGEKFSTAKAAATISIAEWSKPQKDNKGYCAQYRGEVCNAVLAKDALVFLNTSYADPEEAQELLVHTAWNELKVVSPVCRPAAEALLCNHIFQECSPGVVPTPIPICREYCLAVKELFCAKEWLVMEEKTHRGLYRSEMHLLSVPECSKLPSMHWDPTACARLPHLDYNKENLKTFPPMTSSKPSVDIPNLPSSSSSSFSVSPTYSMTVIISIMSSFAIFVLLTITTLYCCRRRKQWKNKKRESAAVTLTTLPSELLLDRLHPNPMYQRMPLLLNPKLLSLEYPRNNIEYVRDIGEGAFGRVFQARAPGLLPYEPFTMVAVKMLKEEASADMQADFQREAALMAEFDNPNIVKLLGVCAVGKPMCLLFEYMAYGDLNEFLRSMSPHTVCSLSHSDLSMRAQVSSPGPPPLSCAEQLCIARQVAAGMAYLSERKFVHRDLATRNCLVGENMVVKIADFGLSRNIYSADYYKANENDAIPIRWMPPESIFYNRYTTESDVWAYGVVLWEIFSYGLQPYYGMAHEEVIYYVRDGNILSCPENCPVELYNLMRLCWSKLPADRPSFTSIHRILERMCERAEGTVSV
# Protocol: as §1
# NEK11 = target: T29, NEK11 (Homo sapiens, UniProt Q8NG66)
# T29 construct: purchased Eurofins/DiscoverX KINOMEscan scanMAX
# T29 sequence (Q8NG66 whole entry): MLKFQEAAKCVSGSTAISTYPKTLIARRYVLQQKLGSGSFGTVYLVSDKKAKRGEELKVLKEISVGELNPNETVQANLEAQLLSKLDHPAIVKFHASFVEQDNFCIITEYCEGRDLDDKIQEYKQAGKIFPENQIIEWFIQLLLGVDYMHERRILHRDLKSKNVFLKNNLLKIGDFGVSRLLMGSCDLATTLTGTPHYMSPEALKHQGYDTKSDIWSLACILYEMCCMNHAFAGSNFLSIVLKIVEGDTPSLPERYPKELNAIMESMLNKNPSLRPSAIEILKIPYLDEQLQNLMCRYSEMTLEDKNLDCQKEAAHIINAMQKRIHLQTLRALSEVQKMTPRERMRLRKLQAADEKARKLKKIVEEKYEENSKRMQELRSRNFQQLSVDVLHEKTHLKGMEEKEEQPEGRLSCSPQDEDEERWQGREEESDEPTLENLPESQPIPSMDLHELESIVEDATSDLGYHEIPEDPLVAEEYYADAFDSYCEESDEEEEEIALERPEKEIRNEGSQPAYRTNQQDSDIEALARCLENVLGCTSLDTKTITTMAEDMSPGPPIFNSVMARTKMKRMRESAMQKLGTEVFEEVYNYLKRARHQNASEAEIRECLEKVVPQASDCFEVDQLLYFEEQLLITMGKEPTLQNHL
# Protocol: as §1
# NEK2 = target: T30, NEK2 (Homo sapiens, UniProt P51955)
# T30 construct: purchased Eurofins/DiscoverX KINOMEscan scanMAX
# Protocol: as §1
# NEK3 = target: T31, NEK3 (Homo sapiens, UniProt P51956)
# T31 construct: purchased Eurofins/DiscoverX KINOMEscan scanMAX
# Protocol: as §1
# NIM1 = target: T32, NIM1 (Homo sapiens, UniProt Q8IY84)
# T32 construct: purchased Eurofins/DiscoverX KINOMEscan scanMAX
# Protocol: as §1
# PAK6 = target: T33, PAK6 (Homo sapiens, UniProt Q9NQU5)
# T33 construct: purchased Eurofins/DiscoverX KINOMEscan scanMAX
# Protocol: as §1
# PIK3CA(E542K) = target: T34, PIK3CA(E542K) (Homo sapiens, UniProt P42336, E542K)
# T34 construct: purchased Eurofins/DiscoverX KINOMEscan scanMAX
# Protocol: as §1
# PIM3 = target: T35, PIM3 (Homo sapiens, UniProt Q86V86)
# T35 construct: purchased Eurofins/DiscoverX KINOMEscan scanMAX
# Protocol: as §1
# PKMYT1 = target: T36, PKMYT1 (Homo sapiens, UniProt Q99640)
# T36 construct: purchased Eurofins/DiscoverX KINOMEscan scanMAX
# Protocol: as §1
# PLK2 = target: T37, PLK2 (Homo sapiens, UniProt Q9NYY3)
# T37 construct: purchased Eurofins/DiscoverX KINOMEscan scanMAX
# Protocol: as §1
# RIPK4 = target: T38, RIPK4 (Homo sapiens, UniProt P57078)
# T38 construct: purchased Eurofins/DiscoverX KINOMEscan scanMAX
# T38 sequence (P57078 whole entry): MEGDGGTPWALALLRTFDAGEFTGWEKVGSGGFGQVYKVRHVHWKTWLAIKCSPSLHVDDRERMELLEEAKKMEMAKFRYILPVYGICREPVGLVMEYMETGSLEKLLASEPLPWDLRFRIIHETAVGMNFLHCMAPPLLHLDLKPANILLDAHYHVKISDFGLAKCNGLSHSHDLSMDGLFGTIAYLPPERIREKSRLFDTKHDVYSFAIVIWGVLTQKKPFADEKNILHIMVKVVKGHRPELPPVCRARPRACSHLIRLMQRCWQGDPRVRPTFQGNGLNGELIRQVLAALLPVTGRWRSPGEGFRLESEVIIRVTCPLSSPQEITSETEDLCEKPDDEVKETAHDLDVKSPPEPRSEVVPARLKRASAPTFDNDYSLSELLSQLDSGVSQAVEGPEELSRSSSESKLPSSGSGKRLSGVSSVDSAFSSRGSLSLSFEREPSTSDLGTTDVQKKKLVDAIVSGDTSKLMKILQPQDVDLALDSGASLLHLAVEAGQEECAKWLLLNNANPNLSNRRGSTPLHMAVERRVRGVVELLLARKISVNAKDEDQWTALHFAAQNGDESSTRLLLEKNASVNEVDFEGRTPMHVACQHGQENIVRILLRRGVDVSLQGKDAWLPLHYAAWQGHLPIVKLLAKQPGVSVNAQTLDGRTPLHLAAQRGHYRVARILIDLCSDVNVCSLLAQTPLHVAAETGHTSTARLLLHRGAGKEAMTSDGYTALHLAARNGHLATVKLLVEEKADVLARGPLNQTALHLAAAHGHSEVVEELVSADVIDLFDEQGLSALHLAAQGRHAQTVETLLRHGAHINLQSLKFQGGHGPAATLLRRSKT
# Protocol: as §1
# SBK1 = target: T39, SBK1 (Homo sapiens, UniProt Q52WX2)
# T39 construct: purchased Eurofins/DiscoverX KINOMEscan scanMAX
# Protocol: as §1
# SGK2 = target: T40, SGK2 (Homo sapiens, UniProt Q9HBY8)
# T40 construct: purchased Eurofins/DiscoverX KINOMEscan scanMAX
# Protocol: as §1
# ULK1 = target: T41, ULK1 (Homo sapiens, UniProt O75385)
# T41 construct: DNA tag (qPCR barcode); purchased Eurofins/DiscoverX KINOMEscan scanMAX
# Protocol: as §1
# YANK3 = target: T42, YANK3 (Homo sapiens, UniProt Q86UX6)
# T42 construct: purchased Eurofins/DiscoverX (KINOMEscan scanMAX service)
# Protocol: as §1
compound,measurement,setting,value
CN1CCN(C2CCC(n3cc(-c4ccc(Oc5ccccc5)cc4)c4c(N)ncnc43)CC2)CC1 (stereo not drawn) [A-419259],% Control,[1],2.4%
same,% Control,ADCK3,100%
same,% Control,ASK1,100%
same,% Control,BIKE,80%
same,% Control,CAMK1,92%
same,% Control,CAMK2A,88%
same,% Control,CDC2L1,61%
same,% Control,CDK9,65%
same,% Control,CHEK1,54%
same,% Control,CSF1R-autoinhibited,57%
same,% Control,DAPK2,98%
same,% Control,DDR1,65%
same,% Control,EPHA4,100%
same,% Control,EPHA8,72%
same,% Control,EPHB2,100%
same,% Control,FLT3(D835H),12%
same,% Control,FLT3(D835Y),7.6%
same,% Control,GRK3,100%
same,% Control,[2],65%
same,% Control,MAP3K4,92%
same,% Control,MARK1,82%
same,% Control,MAST1,64%
same,% Control,MEK4,89%
same,% Control,MEK5,0.25%
same,% Control,MELK,21%
same,% Control,MERTK,12%
same,% Control,MST1,34%
same,% Control,MUSK,100%
same,% Control,NEK11,77%
same,% Control,NEK2,81%
same,% Control,NEK3,92%
same,% Control,NIM1,100%
same,% Control,PAK6,84%
same,% Control,PIK3CA(E542K),85%
same,% Control,PIM3,100%
same,% Control,PKMYT1,100%
same,% Control,PLK2,77%
same,% Control,RIPK4,84%
same,% Control,SBK1,96%
same,% Control,SGK2,90%
same,% Control,ULK1,99%
same,% Control,YANK3,100%
